This note sets out measurements from ChEMBL document CHEMBL1126977, “Derivatives of 1-hydroxy-3-aminopyrrolidin-2-one (HA-966). Partial agonists at the glycine site of the NMDA receptor” (Bioorg Med Chem Lett, 1993).

Series [1] deals with Glutamate receptor ionotropic, NMDA 1 (Rattus norvegicus, UniProt P35439). As to the kind of experiment: Inhibition of [3H]glycine binding to rat cortical membranes. It counts as cell membranes, Membrane.
For series [2], the species on record is Rattus norvegicus. As to the kind of experiment: In vitro inhibitory activity of glycine (0.3 uM) responses in isolated cultured cortical neurons. In kind it is functional.
The nature of series [3]: Compound was evaluated for the pKa value. In kind it is physicochemical.
Series [4] can be described thus: Compound was evaluated for the octanol-water partition coefficient […] at pH 7.4. It counts as physicochemical.
The species named for series [5] is Rattus norvegicus. The series is described as follows: Tested in vitro for the inhibitory constant of glycine (0.3 uM) responses in isolated cultured cortical neurones. It counts as functional.
The nature of series [6]: Compound was evaluated for the pKa value in experiment 2. In kind it is physicochemical.
The nature of series [7]: Compound was evaluated for the pKa value in experiment 1. It counts as physicochemical.

Molecules are shown by their SMILES.

What is called IC50 is the concentration needed to halve the response being measured. The Inhibition is the drop in the measured response relative to a control, in per cent. Read a high Inhibition as a strong effect. On to `O=C1C2NCCC2CN1O` (stereo not given), for which the IC50 in series [1] was greater than 100 µM. In the series filed under Rattus norvegicus [2], this compound returned an Inhibition of 52%.

The Ki is the dissociation constant of the complex between target and ligand, obtained from inhibition or displacement. With `C[C@H]1C2NCCC1N(O)C2=O` (stereo not given in full), the IC50 in series [1] stood at 48 µM. In the series filed under Rattus norvegicus [2], this compound came in with a Ki of 8.2 µM.

In turn, `C[C@@H]1C2NCCC1N(O)C2=O` (stereo not given in full) returned a half-maximal inhibitory concentration (IC50) in series [1] greater than 100 µM. This compound came in with an inhibitory constant (Ki) in the series filed under Rattus norvegicus [2] greater than 80 µM.

In series [1], `N[C@@H]1CCN(O)C1=O` (stereo in doubt; (+)-1) showed an IC50 of 12.5 µM. In the series filed under Rattus norvegicus [2], this compound yielded an inhibitory constant (Ki) of 2.5 µM.

The compound `O=C1C2CC(CCN2)N1O` (stereo not given) had a 50% inhibitory concentration (IC50) in series [1] of 19 µM. In the series filed under Rattus norvegicus [2], this compound returned a Ki of 3.5 µM.

In the case of `N[C@H]1C(=O)N(O)C[C@H]1CO`, the IC50 in series [1] is greater than 100 µM. The compound further registered an Inhibition in the series filed under Rattus norvegicus [2] of 63%.

In turn, `CC[C@@H]1CN(O)C(=O)[C@@H]1N` returned an IC50 in series [1] of 15 µM. Further, the Ki in the series listed under Rattus norvegicus [2] came to 15.4 µM.

For `N[C@H]1C(=O)N(O)C[C@@H]1O`, in series [1], the IC50 worked out at 313 µM. Besides, the Inhibition in the series listed under Rattus norvegicus [2] worked out at 30%.

A word on the pKa: it is the negative logarithm of the acid dissociation constant. Higher therefore signals a group that holds its proton tightly. Compound `C[C@@H]1CN(OCc2ccccc2)C(=O)[C@@H]1N` returned a pKa in series [3] of 6.1.

The compound `C[C@H]1CN(O)C(=O)[C@H]1N` came in with a half-inhibitory concentration (IC50) in series [1] of 86 µM.

With `N[C@H]1C(=O)N(O)C[C@H]1c1ccccc1`, in series [1], the IC50 is greater than 100 µM. Also, the Inhibition in the series listed under Rattus norvegicus [2] turned out to be 0%.

For `C[C@H]1CN(O)C(=O)[C@@H]1N`, the IC50 in series [1] was greater than 100 µM.

What is called logD is the decadic logarithm of the distribution of all forms, ionised or not, between an organic phase and buffer at a given pH. Low readings indicate lower lipophilicity, high ones higher lipophilicity. The compound `C[C@@H]1CN(O)C(=O)[C@@H]1N` (stereo in doubt; 2) registered a pKa in series [3] of 8. In series [1], this compound yielded an IC50 of 2.9 µM. Moreover, the Ki in the series filed under Rattus norvegicus [2] was determined as 1.3 µM. This compound also displayed a log distribution coefficient (logD) in series [4] of 3.42.

In the case of `CCC[C@@H]1CNC(=O)[C@@H]1N`, the IC50 in series [1] was greater than 100 µM. In addition, in the series filed under Rattus norvegicus [2], the Inhibition worked out at 39%.

As to `O=C1C2CC(CN2)CN1O` (stereo not given), the IC50 in series [1] is greater than 100 µM. In the series listed under Rattus norvegicus [2], this compound came in with an Inhibition of 16%.

For `C[C@@H]1CN(O)C(=O)[C@@H]1N` (stereo in doubt; (+)-2), the IC50 in series [1] amounted to 1.4 µM. Affinity in the series listed under Rattus norvegicus [5] was put at a Ki of 0.65 µM.

For the compound `O=C1C2CC(CCN2)CN1O` (stereo not given), in series [1], the IC50 was greater than 100 µM. The compound also came in with an Inhibition in the series filed under Rattus norvegicus [2] of 28%.

`NC1CCN(O)C1=O` (single isomer, unassigned; (-)) gave an IC50 in series [1] of 339 µM.

Turning to `N[C@@H]1CCN(O)C1=O` (stereo in doubt; 1), the pKa in series [3] is 8.1. The compound also registered a half-inhibitory concentration (IC50) in series [1] of 27.2 µM. Moreover, the Ki in the series filed under Rattus norvegicus [2] was found to be 6.3 µM. The compound further showed a log distribution coefficient (logD) in series [4] of 3.52.

For the compound `N[C@H]1C(=O)N(O)C[C@H]1CCO`, in series [1], the concentration for half-maximal inhibition (IC50) is greater than 100 µM. Besides, in the series filed under Rattus norvegicus [2], the Inhibition was 59%.

Turning to `NC1CCN(OCc2ccccc2)C1=O` (stereo not given), the values for the pKa in series [6] and in series [7] were 6.6 and 6.2, respectively.

Compound `N[C@H]1C(=O)N(O)C[C@H]1O` returned an IC50 in series [1] of 1.3 µM. The affinity in the series filed under Rattus norvegicus [2], expressed as Ki, was 0.75 µM.

With `O=C1C2CC(CN2)N1O` (stereo not given), the affinity in the series listed under Rattus norvegicus [2], expressed as Ki, was 5 µM.
